Assay results published in patent US20150133341A1, “Intra-Operative Cancer Diagnosis Based on a Hyperpolarized Marker” (ALBEDA INNOVATIONS APS, priority 2012, published 2015).
Values belong to the molecule of their own block, whether it stands above or below them.

What was measured:
[1] = tested on: isolated CE-1 enzyme from porcine liver; assay: CE-1 activity on short chain esters, 1H NMR; assay type: biochemical; conditions: 37° C.; for k: 26 μmol substrate, conversion over 60 min
From the text: To measure almost exclusively the contribution of carboxyl esterase activity from the CE-2 isoform, human breast cancer cells (MCF-7) were employed. These cells are known from literature to express CE-2 but not to express CE-1 (Byun et al, 2008, Cancer letters 266:238-48). A group of esters was investigated as substrates for CE-1, which contained different structural features. These consisted of esters of un-substituted acids (examples are ethyl acetate, ethyl butyrate, methyl butyrate), esters of acids substituted on C2 (examples are ethyl lactate and ethyl 2-acetoxy propanoate), esters of acids substituted on C3 (examples are ethyl 3-hydroxy butyrate and ethyl 3-acetoxy butanoate), esters of ring closed acids (example ethyl pyroglutamate), esters of di-acids (examples are diethyl succinate and dimethyl succinate), esters of tri-acids (example triethyl citrate), ethyl esters of beta-keto acids (example ethyl acetoacetate). Also esters with large alcohol groups and small acid groups were investigated. In this group, the acid part of the molecule was always acetate and different structural properties of the alcohol were investigated. These consisted of esters of un-substituted alcohols (examples ethyl acetate and butyl acetate), esters of branched chain alcohols (examples t-butyl acetate, ethyl 3-acetoxy butanoate and 2-acetoxy propionate), esters of aromatic alcohols (example benzyl acetate), esters of diols (example ethyleneglycol diacetate), esters of triols (example triacetin). […] Similarly, a group of esters which contained different structural features was investigated as substrates for CE-2. CE-2 substrates are described in the literature to consist of a small acid group and a larger alcohol group. All included esters were acetate esters (i.e. esters of acetic acid) in the interest of keeping the acid moiety the smallest possible. The acetate esters measured for CE-2 activity were therefore the same as those measured in the second group of possible substrates for CE-1.
The CE-1 experiments were performed with commercially available CE-1 from porcine liver. Individual samples of the substrates were all prepared the following way: 26 μmol was weighted in an eppendorf tube. 550 μl deuterated phosphate buffer (200 mM, pH 7.5) was added and the substrate was brought into solution by whirl mixing. The solution was transferred to a 5 mm NMR tube and inserted in the spectrometer at 37° C. A reference experiment was acquired on the substrate solution without enzyme after which 10 μl of an esterase stock solution (37 U/ml in deuterated phosphate buffer) was added in the top of the tube. The sample was mixed and returned to the spectrometer. A series of thermal 1D ^1H NMR experiments were recorded every 5 min for 60 min. The data were analysed with MNOVA software and measured as percentage conversion of substrate calculated to account for the amount of substrate converted over 60 min. The numbers are given in μmol/min.

[2] = tested on: carboxyl esterase in lysed breast cancer cells (MCF-7); assay: Carboxyl esterase activity in cell extract, 1H NMR; assay type: biochemical, human; conditions: 5 million lysed cells; for Metabolic conversion, Breast cancer cells MCF-7: 37° C.
Experimental: (§1) The hydrolysis of the substrates was investigated in cell extracts. To test substrates without isotope labelling for carboxyl esterase activity in a cellular background, a ^1H NMR assay was applied. Human breast cancer cells (MCF-7) and human prostate cancer cells (PC-3) were grown in RPMI medium with 10% FBS and antibiotics. They were at confluence harvested by trypsination and washed once with 5 ml PBS. They were spun down and resuspended in PBS to a concentration of 20 mill. cells/ml. The cells were hereafter sonicated on ice (50% amplitude, 1 min, 3 sec pulse). Human lymphocytes were purified from whole blood. Whole blood samples were drawn from healthy volunteer into heparinised venous blood collection tubes (Venosafe vacumtubes from Terumo). For each experiment, the blood was purified freshly: Three and a half 10 mL tubes of blood were pooled in each of four 50 mL Leucosep (Greiner) tubes prepared with 15 mL Histopaque 1077 (Sigma). The Leucosep tubes were spun for 15 min at 800× g at 24 C. The plasma was removed and the white blood cells were transferred to a 50 mL falcon tube by decanting and diluted 1:2 in PBS-Mg—Ca for a total volume of 50 mL. The cells were sedimented by centrifugation at 250×g for 60 min. Diluting with trypan blue and counting in hemocytometer determined the total number of lymphocytes before sedimentation. All cells were viable and the total number of cells in each cell batch was approx. 60 million. The lymphocytes were redissolved to a concentration of 20 million cells/ml. The cells were hereafter sonicated on ice (50% amplitude, 1 min, 3 sec pulse).
(§2) 250 μl sonicated cell suspension was mixed with 250 μl 400 mM phosphate buffer pH 7.3. This solution was transferred to a 5 mm NMR tube and warmed on a water bath to 37° C. The substrate was added (50 μl, 60 mM) and the tube turned for mixing before it was inserted into the spectrometer. The data was analyzed with MNOVA software and measured as percentage conversion of substrate calculated to account for the amount of substrate converted over 60 min; numbers are given in μmol/hour.

[3] = tested on: carboxyl esterase in lysed lymphocytes (B + T cells); assay: Carboxyl esterase activity in cell extract, 1H NMR; assay type: biochemical, human; conditions: 5 million lysed cells; for Metabolic conversion, Lymphocytes (B + T cells): 37° C.
Experimental: as §1, §2

[4] = tested on: carboxyl esterase in lysed prostate cancer cells (PC-3); assay: Carboxyl esterase activity in cell extract, 1H NMR; assay type: biochemical, human; conditions: for Metabolic conversion, Prostate cancer cells PC-3: 37° C.
Experimental: as §1, §2

[5] = acetate vs ethyl ester function

k [1]: 0.07 µmol/min
SMILES: CC(=O)OCc1ccccc1 [Benzyl acetate]
Metabolic conversion, Breast cancer cells MCF-7 [2]: 1.05 µmol/h | Metabolic conversion, Lymphocytes (B + T cells) [3]: 0.39 µmol/h | Metabolic conversion, Prostate cancer cells PC-3 ([4]; 5 million lysed cells): 22 µmol/h | metabolic conversion in prostate cancer cells compared to lymphocytes ([4]; cell number basis, positive contrast): ~60 times

k [1]: 0.02 µmol/min
SMILES: CC(=O)OCC(COC(C)=O)OC(C)=O [Tri-acetin]
Metabolic conversion, Breast cancer cells MCF-7 [2]: 0.27 µmol/h | Metabolic conversion, Lymphocytes (B + T cells) [3]: 0.18 µmol/h | Metabolic conversion, Prostate cancer cells PC-3 ([4]; 5 million lysed cells): 1.8 µmol/h

SMILES: CCOC(=O)CC(C)OC(C)=O (centres unmarked) [ethyl 3-acetoxy butanoate]
k (μmol/min), acetate ester ([1]; hydrolysis of the acetate ester function, 60 min): 0 µmol/min | k (μmol/min), ethyl ester ([1]; hydrolysis of the ethyl ester function, 60 min): 0.08 µmol/min | Breast cancer cells MCF-7 Ratio acetate/ethyl [2, 5]: 2 | Lymphocytes (B + T cells) Ratio acetate/ethyl [3, 5]: 1 | Prostate cancer cells PC-3 Ratio acetate/ethyl ([4]; 5 million lysed cells, acetate vs ethyl ester function): 9
